Results as given in EP4620955A1, “MC4R ANTAGONIST COMPOUND, PHARMACEUTICAL COMPOSITION AND PHARMACEUTICAL USE THEREOF” (Changchun Genescience Pharmaceutical Co., Ltd., priority 2022, dated 2024).

Biological target: T1, MC4R (Homo sapiens, UniProt P32245)
T1 construct: expressed in transfected cells; host or cells: flipin-293-MC4 (Flp-In 293 host, hygromycin selection)
Assay: Assay of MC4R antagonist activity in cells in vitro (cAMP assay, Melanotan I stimulation)
Assay type: cell-based
Settings: flipin-293-MC4 cell line, Melanotan I as agonist
Protocol: Test Example 1: Assay of MC4R antagonist activity in cells in vitro
a. Experimental consumables:
b. Experimental steps • ✔ Cell line: flipin-293-MC4 • ✔ Cell culture medium: DMEM, 10% fetal bovine serum, 1 × PS, 200 µg/mL hygromycin • ✔ Experimental buffer: HBSS, 20 mM HEPES, 0.1% BSA, 500 µM IBMX • ✔ Positive compound: ML00253764 c. Antagonist detection • 1. Digested cells were suspended in the experimental buffer, and then inoculated into the 384-well cell culture plate. • 2. The to-be-detected compound was added to the cell plate, and incubated at 37°C for 10 min. • 3. Melanotan I was added to the cell plate, and incubated at 37°C for 30 min. • 4. Two detection reagents EU cAMP tracer and ulight anti camp were thawed and diluted with a lysis solution in the kit. • 5. The diluted detection reagents were added to the cell plate and incubated at room temperature for 1 h. • 6. Reading was carried out by Envision. (Excitation light: 340 nm, emission light: 615 nm and 665 nm) d. Data analysis • 1. %Inhibition calculation: %Inhibition = (Signalcmpd−SignalAve_VC)/(SignalAve_PC−SignalAve_VC) × 100. [formula] • Signalcmpd: compound signal value; • SignalAve_VC: negative control signal value; • SignalAve_PC: positive control signal value; • %inhibition: inhibition percentage. • 2. Calculation of IC50 of the compound using the nonlinear fitting equation in GraphPad: Y = Bottom + (Top−Bottom)/(1+10^(∧)((LogIC50−X)×HillSlope)) [formula] X: logarithmic value of the concentration of the compound; Y: inhibition percentage

T1 sequence (P32245 whole entry): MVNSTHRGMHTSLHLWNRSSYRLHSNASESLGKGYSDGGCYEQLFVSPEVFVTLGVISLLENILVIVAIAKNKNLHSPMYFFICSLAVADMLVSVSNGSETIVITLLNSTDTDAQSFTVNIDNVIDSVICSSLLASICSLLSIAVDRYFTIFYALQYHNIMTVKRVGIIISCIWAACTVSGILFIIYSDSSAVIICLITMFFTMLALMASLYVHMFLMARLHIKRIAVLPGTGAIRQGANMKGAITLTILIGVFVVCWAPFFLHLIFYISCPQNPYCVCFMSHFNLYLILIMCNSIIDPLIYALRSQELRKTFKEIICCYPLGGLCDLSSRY

SMILES | IC50 [nM]
COc1cc([C@@H](C)C(=O)N2CCC(Nc3ccc(-c4ncccn4)c(C)n3)C2)c(F)cn1 (stereo partly drawn) [Compound 001, (2R)-2-(5-fluoro-2-methoxypyridine-4-yl)-1-(3-((6-methyl-5-(pyrimidine-2-yl)pyridine-2-yl)amino)pyrrolidine-1-yl)propyl-1-one] | 16.4
COc1cc([C@@H](C)C(=O)N2C[C@@H](C)[C@H](Nc3ccc(-c4ncccn4)c(C)n3)C2)c(F)cn1 [Compound 051-2, (R)-2-(5-fluoro-2-methoxypyridine-4-yl)-1-((3R,4S)-3-methyl-4-((6-methyl-5-(pyrimidine-2-yl)pyridine-2-yl)amino)pyrrolidine-1-yl)propan-1-one] | 10.6
COc1cc([C@@H](C)C(=O)N2CC[C@H](Nc3ccc(-c4ncc(C#N)cn4)c(C)n3)C2)c(F)cn1 [Compound 110, 2-(6-(((S)-1-((R)-2-(5-fluoro-2-methoxypyridine-4-yl)propionyl)pyrrolidine-3-yl)amino)-2-methylpyridine-3-yl)pyrimidine-5-nitrile] | 26.2
COc1cc([C@@H](C)C(=O)N2CC[C@H](Nc3ccc(-c4nccc(C#N)n4)c(C)n3)C2)c(Cl)cn1 [Compound 113, 2-(6-(((S)-1-((R)-2-(5-chloro-2-methoxypyridine-4-yl)propionyl)pyrrolidine-3-yl)amino)-2-methylpyridine-3-yl)pyrimidine-4-nitrile] | 0.9
COc1ccc2nc(N[C@@H]3CN(C(=O)[C@H](C)c4cc(OC)ncc4F)CC34CC4)nc(C)c2c1 [Compound 115, (R)-2-(5-fluoro-2-methoxypyridine-4-yl)-1-((S)-7-((6-methoxy-4-methylquinazoline-2-yl)amino)-5-azaspiro[2.4]heptane-5-yl)propan-1-one] | 2.78
COc1cc([C@@H](C)C(=O)N2C[C@@H](Nc3ccc4cc(OC)c(F)cc4n3)C3(CC3)C2)c(F)cn1 [Compound 117, (R)-2-(5-fluoro-2-methoxypyridine-4-yl)-1-((S)-7-((7-fluoro-6-methoxyquinoline-2-yl)amino)-5-azaspiro[2.4]heptane-5-yl)propan-1-one] | 1.57
COc1ccc2nc(N[C@@H]3CN(C(=O)[C@H](C)c4cc(OC)ncc4Cl)CC34CC4)nc(C)c2c1 [Compound 118] | 3.75
COc1cc([C@@H](C)C(=O)N2C[C@@H](Nc3ccc(-c4nc(C(F)F)n(C)n4)c(C)n3)C3(CC3)C2)c(F)cn1 [Compound 119, (R)-1-((S)-7-((5-(5-(difluoromethyl)-1-methyl-1H-1,2,4-triazole-3-yl)-6-methylpyridine-2-yl)amino)-5-azaspiro[2.4]heptane-5-yl)-2-(5-fluoro-2-methoxypyridine-4-yl)propan-1-one] | 1.71
COc1cc([C@@H](C)C(=O)N2C[C@@H](Nc3ccc(-c4nc(C)n(C)n4)c(C)n3)C3(CC3)C2)c(F)cn1 [Compound 132, (2R)-1-[(7S)-7-{[5-(1,5-dimethyl-1H-1,2,4-triazole-3-yl)-6-methylpyridine-2-yl]amino}-5-azaspiro[2.4]heptane-5-yl]-2-(5-fluoro-2-methoxypyridine-4-yl)propan-1-one] | 1.06
COc1cc([C@@H](C)C(=O)N2C[C@@H](Nc3ccc(-c4ncn(C)n4)c(C)n3)C3(CC3)C2)c(F)cn1 [Compound 136, (2R)-2-(5-fluoro-2-methoxypyridine-4-yl)-1-[(7S)-7-{[6-methyl-5-(1-methyl-1H-1,2,4-triazole-3-yl)pyridine-2-yl]amino}-5-azaspiro[2.4]heptane-5-yl]propan-1-one] | 1.28
COc1cc([C@@H](C)C(=O)N2C[C@@H](Nc3ccc(-c4nc(C)n(C)n4)c(C)n3)C3(CC3)C2)c(Cl)cn1 [Compound 141, (2R)-2-(5-chloro-2-methoxypyridine-4-yl)-1-[(7S)-7-{[5-(1,5-dimethyl-1H-1,2,4-triazole-3-yl)-6-methylpyridine-2-yl]amino}-5-azaspiro[2.4]heptane-5-yl]propan-1-one] | 2.88
COc1cc([C@@H](C)C(=O)N2C[C@@H](Nc3ccc(-c4ncn(C)n4)c(C)n3)C3(CC3)C2)c(Cl)cn1 [Compound 142, (2R)-2-(5-chloro-2-methoxypyridine-4-yl)-1-[(7S)-7-{[6-methyl-5-(1-methyl-1H-1,2,4-triazole-3-yl)pyridine-2-yl]amino}-5-azaspiro[2.4]heptane-5-yl]propan-1-one] | 3.29
COc1cc([C@@H](C)C(=O)N2C[C@@H](Nc3ccc(-c4cnn(C)c4)c(C)n3)C3(CC3)C2)c(F)cn1 [Compound 143, (2R)-2-(5-fluoro-2-methoxypyridine-4-yl)-1-((7S)-7-((6-methyl-5-(1-methyl-1H-pyrazol-4-yl)pyridine-2-yl)amino)-5-azaspiro[2.4]heptane-5-yl)propan-1-one] | 5.73
COc1cc([C@@H](C)C(=O)N2C[C@@H](Nc3ccc(-c4cnn(C)c4)c(C)n3)C3(CC3)C2)c(Cl)cn1 [Compound 144] | 1.83
COc1cc([C@@H](C)C(=O)N2C[C@@H](Nc3ccc(-c4cn(C)c(C)n4)c(C)n3)C3(CC3)C2)c(F)cn1 [Compound 149, (R)-1-((S)-7-((5-(1,2-dimethyl-1H-imidazol-4-yl)-6-methylpyridine-2-yl)amino)-5-azaspiro[2.4]hept-5-yl)-2-(5-fluoro-2-methoxypyridine-4-yl)propan-1-one] | 1.74
COc1cc([C@@H](C)C(=O)N2C[C@@H](Nc3ccc(-c4cn(C)cn4)c(C)n3)C3(CC3)C2)c(F)cn1 [Compound 150, (R)-2-(5-fluoro-2-methoxypyridine-4-yl)-1-((S)-7-((6-methyl-5-(1-methyl-1H-imidazol-4-yl)pyridine-2-yl)amino)-5-azaspiro[2.4]hept-5-yl)propan-1-one] | 1.84
COc1cc([C@@H](C)C(=O)N2C[C@@H](Nc3ccc(-c4nccc(C(F)F)n4)c(C)n3)C3(CC3)C2)c(F)cn1 [Compound 155, (R)-1-((S)-7-((5-(4-(difluoromethyl)pyrimidine-2-yl)-6-methylpyridine-2-yl)amino)-5-azaspiro[2.4]hept-5-yl)-2-(5-fluoro-2-methoxypyridine-4-yl)propan-1-one] | 3.04
COc1cc([C@@H](C)C(=O)N2C[C@@H](Nc3ccc(-c4nccc(C(F)F)n4)c(C)n3)C3(CC3)C2)c(Cl)cn1 [Compound 156, (R)-2-(5-chloro-2-methoxypyridine-4-yl)-1-((S)-7-((5-(4-(difluoromethyl)pyrimidine-2-yl)-6-methylpyridine-2-yl)amino)-5-azaspiro[2.4]hept-5-yl)propan-1-one] | 1.85
COc1cc([C@@H](C)C(=O)N2C[C@@H](Nc3ccc(-c4cnn(C)n4)c(C)n3)C3(CC3)C2)c(Cl)cn1 [Compound 166, (R)-2-(5-chloro-2-methoxypyridine-4-yl)-1-((S)-7-((6-methyl-5-(2-methyl-2H-1,2,3-triazol-4-yl)pyridine-2-yl)amino)-5-azaspiro[2.4]hept-5-yl)propan-1-one] | 4.03
COc1cc([C@@H](C)C(=O)N2C[C@@H](Nc3ccc(-c4cc(C#N)ccn4)c(C)n3)C3(CC3)C2)c(Cl)cn1 [Compound 168, 6'-(((S)-5-((R)-2-(5-chloro-2-methoxypyridine-4-yl)propionyl)-5-azaspiro[2.4]hept-7-yl)amino)-2'-methyl-[2,3'-bipyridyl]-4-carbonitrile] | 3.68

Tested on: not listed separately
Assay: Pharmacokinetic study on the tested compound in SD male rats
Assay type: in vivo
Settings: IV 1 mpk/PO 2 mpk
Protocol: On the day of administration, the tested compound was prepared with 5% DMSO + 5% Solutol + 90% Saline as a solvent into a solution for administration for use.
The solution for administration was administered to an intravenous injection IV group at a dose of 1 mg/kg in a concentration of 0.2 mg/mL. The solution for administration was administered to an oral gavage PO group at a dose of 2 mg/kg in a concentration of 0.2 mg/mL. The animals in the PO group were required to fast overnight in advance, drink water freely, and be fed 4 hours after administration. The IV group was not required to fast.
The animals were weighed before administration. On the day of administration, the solution was IV/PO-administered once in an administration amount calculated based on the weight. In the IV group, blood was collected from veins at 0.083 h, 0.25 h, 0.5 h, 1.0 h, 2.0 h, 4.0 h, 8.0 h, and 24 h after administration. In the PO group, blood was collected from veins at 0.25 h, 0.5 h, 1.0 h, 2.0 h, 4.0 h, 6.0 h, 8.0 h, and 24 h after administration. The amount of blood collected was about 0.20 mL. K2-EDTA was used in blood collection tubes as an anticoagulant. The collected blood sample was centrifuged (centrifugation conditions: 6800 g, 6 min, 2°C to 8°C) within 1 h to obtain plasma. The to-be-tested sample was stored in a refrigerator at -80°C before analysis.
The concentration of the tested compound in the plasma of the SD male rats was detected by the validated LC-MS/MS method.

SMILES | F [%]
COc1cc([C@@H](C)C(=O)N2CC[C@H](Nc3ccc(-c4cn(C)c(OC(F)F)n4)c(C)n3)C2)c(F)cn1 [Compound 197, (R)-1-((S)-3-((5-(2-(difluoromethoxy)-1-methyl-1H-imidazol-4-yl)-6-methylpyridine-2-yl)amino)pyrrolidine-1-yl)-2-(5-fluoro-2-methoxypyridine-4-yl)propan-1-one] | 11.1

Same assay, conditions: Sprague-Dawley (SD), rat, plasma, IV 1 mpk/PO 2 mpk

SMILES | AUC [ng·h/mL] | Cmax [ng/mL] | clearance [mL/min/kg] | half-life [h]
COc1cc([C@@H](C)C(=O)N2CC[C@H](Nc3ccc(-c4cn(C)c(OC(F)F)n4)c(C)n3)C2)c(F)cn1 [Compound 197, (R)-1-((S)-3-((5-(2-(difluoromethoxy)-1-methyl-1H-imidazol-4-yl)-6-methylpyridine-2-yl)amino)pyrrolidine-1-yl)-2-(5-fluoro-2-methoxypyridine-4-yl)propan-1-one] | 43 | 35 | 86.9 | 1.2
